Consider three compounds from paper PMC12077191, “Aeromonas hydrophila RTX adhesin has three ligand-binding domains that give the bacterium the potential to adhere to and aggregate a wide variety of cell types” (mBio, 2025).

Assay [1] deals with T1, AhLap RTX adhesin, carbohydrate-binding module (AhLapCBM3) (Aeromonas hydrophila, UniProt A0KNW4). Kind of assay: printed mammalian glycan array (CFG v5.[…]), GFP fluorescence. Further details: gene AHA_3491; GFP-tagged AhLapCBM3 (Asn3455 to Gly3940).
Assay [2] has as its target T1, AhLap RTX adhesin, carbohydrate-binding module (AhLapCBM3). Kind of assay: isothermal titration calorimetry at […] °C; […] also blocks binding to cells. Further details: gene AHA_3491; AhLapCBM3, three-domain construct Asn3455 to Gly3940 (extender domain, split domain and CBM), His-tagged. Background: In ITC the heat of successive injections is recorded.
The target is the same in assay [3]. Kind of assay: isothermal titration calorimetry at […] °C; also glycan array. Further details: gene AHA_3491; AhLapCBM3, three-domain construct Asn3455 to Gly3940 (extender domain, split domain and CBM), His-tagged.

As for `CC(=O)N[C@H]1C(O)O[C@H](CO)[C@@H](O[C@@H]2O[C@H](CO)[C@H](O)[C@H](O)[C@H]2O[C@@H]2O[C@@H](C)[C@@H](O)[C@@H](O)[C@@H]2O)[C@@H]1O[C@@H]1O[C@@H](C)[C@@H](O)[C@@H](O)[C@@H]1O` (mixture of isomers) [Lewis Y antigen], the “printed mammalian glycan array (CFG v5.4), GFP fluorescence” value in assay [1] was “Strong binding was observed to the Lewis B and Lewis Y antigens”.

As usually defined, the Kd is the concentration at which binding is half-saturated. For the compound `C[C@@H]1OC(O)[C@@H](O)[C@H](O)[C@@H]1O` (stereo partly drawn) [L-fucose], in assay [2], the Kd is ~386 µM.

`CC(=O)N[C@@H]1[C@@H](O[C@@H]2O[C@H](CO)[C@H](O)[C@H](O)[C@H]2O[C@@H]2O[C@@H](C)[C@@H](O)[C@@H](O)[C@@H]2O)[C@H](O[C@@H]2O[C@@H](C)[C@@H](O)[C@@H](O)[C@@H]2O)[C@@H](CO)O[C@H]1O` [Lewis B antigen] had a Kd in assay [3] of 20.8 µM.
